Toxic doses and inconclusive results are not listed. No stated cut-off is given here; in the data, active means T/C of 150% or more; inactive means T/C below 125%.
Tested on: L1210 leukemia ip in BDF1 mice, survival T/C
Assay: NCI In Vivo Anticancer Drug Screen. Data for tumor model L1210 Leukemia (intraperitoneal) in B6D2F1 (BDF1) mice
Settings: endpoint: mean survival time, higher = longer survival
In short: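 In this screen, tumor-bearing mice given compound are compared to those given vehicle, and their survival values are reported as a treated-to-control quotient.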

[1] = dose: 100.0 mg/kg/injection, schedule: Q04DX003 (ip), vehicle: saline
[2] = dose: 200.0 mg/kg/injection, schedule: Q04DX003 (ip), vehicle: saline
[3] = dose: 400.0 mg/kg/injection, schedule: Q04DX003 (ip), vehicle: saline
[4] = dose: 100.0 mg/kg/injection, schedule: Q01DX009 (ip), vehicle: Klucel (hydroxypropylcellulose) (HPC)
[5] = dose: 100.0 mg/kg/injection, schedule: Q04DX003 (ip), vehicle: Klucel (hydroxypropylcellulose) (HPC)
[6] = dose: 200.0 mg/kg/injection, schedule: Q01DX009 (ip), vehicle: Klucel (hydroxypropylcellulose) (HPC)
[7] = dose: 200.0 mg/kg/injection, schedule: Q04DX003 (ip), vehicle: Klucel (hydroxypropylcellulose) (HPC)
[8] = dose: 400.0 mg/kg/injection, schedule: Q04DX003 (ip), vehicle: Klucel (hydroxypropylcellulose) (HPC)
[9] = dose: 100.0 mg/kg/injection, schedule: Q01DX009 (ip), vehicle: saline
[10] = dose: 100.0 mg/kg/injection, schedule: Q04DX003 (ip), vehicle: saline with Tween-80
[11] = dose: 200.0 mg/kg/injection, schedule: Q01DX009 (ip), vehicle: saline
[12] = dose: 200.0 mg/kg/injection, schedule: Q04DX003 (ip), vehicle: saline with Tween-80
[13] = dose: 400.0 mg/kg/injection, schedule: Q04DX003 (ip), vehicle: saline with Tween-80
[14] = dose: 100.0 mg/kg/injection, schedule: Q01DX001 (ip), vehicle: other
[15] = dose: 200.0 mg/kg/injection, schedule: Q01DX001 (ip), vehicle: other
[16] = dose: 400.0 mg/kg/injection, schedule: Q01DX001 (ip), vehicle: other
[17] = dose: 400.0 mg/kg/injection, schedule: Q01DX009 (ip), vehicle: Klucel (hydroxypropylcellulose) (HPC)
[18] = dose: 100.0 mg/kg/injection, schedule: Q04DX002 (ip), vehicle: Klucel (hydroxypropylcellulose) (HPC)
[19] = dose: 200.0 mg/kg/injection, schedule: Q04DX002 (ip), vehicle: Klucel (hydroxypropylcellulose) (HPC)
[20] = dose: 400.0 mg/kg/injection, schedule: Q04DX002 (ip), vehicle: Klucel (hydroxypropylcellulose) (HPC)
[21] = dose: 100.0 mg/kg/injection, schedule: Q01DX009 (ip), vehicle: saline with Tween-80
[22] = dose: 100.0 mg/kg/injection, schedule: Q01DX001 (ip), vehicle: carboxymethylcellulose (CMC)
[23] = dose: 100.0 mg/kg/injection, schedule: Q01DX001 (ip), vehicle: saline
[24] = dose: 200.0 mg/kg/injection, schedule: Q01DX001 (ip), vehicle: carboxymethylcellulose (CMC)
[25] = dose: 200.0 mg/kg/injection, schedule: Q01DX001 (ip), vehicle: saline
[26] = dose: 400.0 mg/kg/injection, schedule: Q01DX001 (ip), vehicle: carboxymethylcellulose (CMC)

Measured: T/C

OCC1OC(OC2CCCCC2)C(O)C(O)C1O (centres undefined)
inactive: [1] 100 % of control | [2] 96 % of control | [3] 102 % of control

O=C(O)C1(Br)CC12c1ccccc1-c1ccccc12 (centres undefined)
inactive: dose: 100.0 mg/kg/injection, schedule: Q01DX001 (ip), vehicle: acetone 92 % of control | dose: 200.0 mg/kg/injection, schedule: Q01DX001 (ip), vehicle: acetone 95 % of control

CCN(CC)c1ccc(C=Nc2cccc(C(F)(F)F)c2)cc1
inactive: [4] 105 % of control | [5] 92 % of control | [6] 94 % of control | [7] 94 % of control | [8] 97 % of control

CN(C(=O)/C=C/C(=O)O)c1ccccc1
inactive: dose: 25.0 mg/kg/injection, schedule: Q01DX009 (ip), vehicle: saline 104 % of control | dose: 50.0 mg/kg/injection, schedule: Q01DX009 (ip), vehicle: saline 110 % of control | dose: 50.0 mg/kg/injection, schedule: Q04DX003 (ip), vehicle: saline with Tween-80 98 % of control | [9] 105 % of control | [10] 101 % of control | [11] 96 % of control | [12] 95 % of control | [13] 97 % of control

O=Nc1cc(-c2nccc3ccccc23)[nH]c1-c1ccccc1
inactive: [14] 94 % of control | [15] 96 % of control | [16] 94 % of control

C(=Nc1ccc2c3c(cccc13)-c1ccccc1-2)c1ccc2c(c1)OCO2
inactive: [14] 101 % of control | [15] 97 % of control | [16] 94 % of control

O/N=C1/CCCC/C1=C/C=C/c1ccccc1
inactive: [4] 97 % of control | [5] 100 % of control | [6] 97 % of control | [7] 94 % of control | [17] 97 % of control | [8] 93 % of control

OB(O)CI
inactive: dose: 5.0 mg/kg/injection, schedule: Q01DX001 (ip), vehicle: saline 86 % of control | dose: 10.0 mg/kg/injection, schedule: Q01DX001 (ip), vehicle: saline 95 % of control | dose: 20.0 mg/kg/injection, schedule: Q01DX001 (ip), vehicle: saline 97 % of control

Clc1ccc2nc(Cl)c(Cl)nc2c1
inactive: [5] 91 % of control | [7] 96 % of control

CC1(C2CCN(Cc3ccccc3)CC2)OCCO1
inactive: dose: 37.5 mg/kg/injection, schedule: Q04DX003 (ip), vehicle: saline 100 % of control | dose: 75.0 mg/kg/injection, schedule: Q04DX003 (ip), vehicle: saline 100 % of control | dose: 150.0 mg/kg/injection, schedule: Q04DX003 (ip), vehicle: saline 101 % of control

CCCCCCCCCCCC(=O)NC(=S)Nc1ccc(N(C)C)cc1
inactive: [18] 93 % of control | [19] 108 % of control | [20] 90 % of control

CCN(CC)CC(=O)NCC(CCN(C)C)(CCN(C)C)c1cccc2ccccc12
inactive: dose: 25.0 mg/kg/injection, schedule: Q04DX002 (ip), vehicle: saline with Tween-80 115 % of control | dose: 50.0 mg/kg/injection, schedule: Q04DX002 (ip), vehicle: saline with Tween-80 96 % of control | [21] 93 % of control | dose: 100.0 mg/kg/injection, schedule: Q04DX002 (ip), vehicle: saline with Tween-80 107 % of control

CC(C)C(CN)(CCCCN1CCCCC1)c1cccc2ccccc12 (centres undefined)
inactive: [10] 95 % of control

CC[CH2][Ge]([CH2]CC)([CH2]CC)[O][Ge]([CH2]CC)([CH2]CC)[CH2]CC
inactive: dose: 50.0 mg/kg/injection, schedule: Q01DX001 (ip), vehicle: carboxymethylcellulose (CMC) 96 % of control | dose: 50.0 mg/kg/injection, schedule: Q01DX001 (ip), vehicle: saline 95 % of control | [22] 100 % of control | [23] 101 % of control | [24] 100 % of control | [25] 104 % of control | [26] 105 % of control

CN(N)P(=S)(c1ccccc1)N(C)N
inactive: dose: 6.25 mg/kg/injection, schedule: Q01DX009 (ip), vehicle: Klucel (hydroxypropylcellulose) (HPC) 97 % of control | dose: 12.5 mg/kg/injection, schedule: Q01DX009 (ip), vehicle: Klucel (hydroxypropylcellulose) (HPC) 100 % of control | dose: 12.5 mg/kg/injection, schedule: Q04DX003 (ip), vehicle: Klucel (hydroxypropylcellulose) (HPC) 97 % of control | dose: 25.0 mg/kg/injection, schedule: Q01DX009 (ip), vehicle: Klucel (hydroxypropylcellulose) (HPC) 94 % of control | dose: 25.0 mg/kg/injection, schedule: Q04DX003 (ip), vehicle: Klucel (hydroxypropylcellulose) (HPC) 92 % of control

CC(C)(C)C(Br)C(Br)Br (centres undefined) (tested in a mixture with another compound)
inactive: dose: 50.0 mg/kg/injection, schedule: Q01DX009 (ip), vehicle: saline with Tween-80 101 % of control | [21] 97 % of control | dose: 200.0 mg/kg/injection, schedule: Q01DX009 (ip), vehicle: saline with Tween-80 89 % of control

CCOC(=O)C(=N\Nc1cccc(C)c1C)/C(C)=N\NC(N)=S
inactive: dose: 75.0 mg/kg/injection, schedule: Q01DX001 (ip), vehicle: saline 94 % of control | dose: 150.0 mg/kg/injection, schedule: Q01DX001 (ip), vehicle: saline 97 % of control | dose: 300.0 mg/kg/injection, schedule: Q01DX001 (ip), vehicle: saline 97 % of control

COCCc1cccc(C)n1
inactive: [9] 93 % of control | [1] 93 % of control | [11] 92 % of control | [2] 94 % of control | [3] 91 % of control

CSc1ccc([N+](=O)[O-])cc1
inactive: [5] 104 % of control | [7] 100 % of control

O=C(N=Nc1c(O)[nH]c2ccccc12)c1ccccc1[N+](=O)[O-]
inactive: [22] 87 % of control | [24] 90 % of control | [26] 96 % of control

Cc1ccc(NC(=S)Nc2ccccc2)c(C)c1
inactive: [14] 89 % of control | [4] 102 % of control | [18] 87 % of control | [15] 94 % of control | [6] 97 % of control | [19] 90 % of control | [16] 97 % of control | [17] 94 % of control | [20] 106 % of control

c1ccc(NC2CCN(C3(c4ccccc4)CCCCC3)CC2)cc1
inactive: dose: 100.0 mg/kg/injection, schedule: Q04DX002 (ip), vehicle: saline 100 % of control

Cn1c(=O)cc(CC(=O)C(=O)O)c2ccccc21
inactive: [23] 88 % of control | [25] 93 % of control | dose: 400.0 mg/kg/injection, schedule: Q01DX001 (ip), vehicle: saline 93 % of control

CN(C)c1ccc(NC(=O)/C=C/C(=O)O)cc1
inactive: [10] 108 % of control | [12] 101 % of control | [13] 101 % of control

CC(=O)Nc1cccc(C(=O)O)c1[N+](=O)[O-]
inactive: [4] 103 % of control | [1] 103 % of control | [6] 97 % of control | [2] 106 % of control | [17] 93 % of control | [3] 103 % of control

CC(=O)NNS(=O)(=O)c1ccccc1
inactive: dose: 100.0 mg/kg/injection, schedule: Q01DX001 (ip), vehicle: Klucel (hydroxypropylcellulose) (HPC) 102 % of control | [4] 106 % of control | dose: 200.0 mg/kg/injection, schedule: Q01DX001 (ip), vehicle: Klucel (hydroxypropylcellulose) (HPC) 100 % of control | [6] 95 % of control | dose: 400.0 mg/kg/injection, schedule: Q01DX001 (ip), vehicle: Klucel (hydroxypropylcellulose) (HPC) 105 % of control

Cc1c(Cl)cccc1NC(=O)C1CC(Br)C(Br)CC1C(=O)O (centres undefined)
inactive: [18] 95 % of control | [19] 103 % of control | [20] 95 % of control
